Data from paper PMC10096035, “Switching from Aromatase Inhibitors to Dual Targeting Flavonoid-Based Compounds for Breast Cancer Treatment” (Molecules, 2023).

Legend:
[1] = target: T1, aromatase (AR; CYP19A) (Homo sapiens, UniProt P11511); assay: fluorometric aromatase inhibition kit; assay type: biochemical; details: read-out: AR Inhibition IC50 μM ^1
T1 construct: gene CYP19A1; construct not described
T1 sequence (P11511 1-503): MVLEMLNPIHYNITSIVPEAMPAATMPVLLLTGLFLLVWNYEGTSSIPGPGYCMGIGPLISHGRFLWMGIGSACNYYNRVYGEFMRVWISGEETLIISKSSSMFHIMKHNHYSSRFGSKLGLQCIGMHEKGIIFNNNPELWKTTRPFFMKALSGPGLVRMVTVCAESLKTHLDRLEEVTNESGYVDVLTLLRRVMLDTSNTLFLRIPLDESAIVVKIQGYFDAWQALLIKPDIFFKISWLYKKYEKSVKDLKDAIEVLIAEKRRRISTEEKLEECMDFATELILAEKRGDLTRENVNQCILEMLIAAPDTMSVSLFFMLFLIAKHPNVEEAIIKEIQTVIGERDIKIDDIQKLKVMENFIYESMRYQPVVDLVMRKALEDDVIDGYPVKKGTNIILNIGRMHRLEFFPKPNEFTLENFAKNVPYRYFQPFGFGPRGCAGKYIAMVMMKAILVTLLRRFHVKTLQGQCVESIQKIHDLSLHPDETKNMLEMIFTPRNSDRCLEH
From the text: fluorometric aromatase inhibition kit on aromatase (AR; CYP19A)

[2] = target: T2, ERα (Estrogen Receptor α) (Homo sapiens, UniProt P03372); assay: fluorescence polarization competition (PolarScreen); details: read-out: ERα Binding IC50 μM ^1
T2 construct: gene ESR1; purified ERα supplied with the PolarScreen kit (Invitrogen); construct not described
T2 sequence (P03372 1-595): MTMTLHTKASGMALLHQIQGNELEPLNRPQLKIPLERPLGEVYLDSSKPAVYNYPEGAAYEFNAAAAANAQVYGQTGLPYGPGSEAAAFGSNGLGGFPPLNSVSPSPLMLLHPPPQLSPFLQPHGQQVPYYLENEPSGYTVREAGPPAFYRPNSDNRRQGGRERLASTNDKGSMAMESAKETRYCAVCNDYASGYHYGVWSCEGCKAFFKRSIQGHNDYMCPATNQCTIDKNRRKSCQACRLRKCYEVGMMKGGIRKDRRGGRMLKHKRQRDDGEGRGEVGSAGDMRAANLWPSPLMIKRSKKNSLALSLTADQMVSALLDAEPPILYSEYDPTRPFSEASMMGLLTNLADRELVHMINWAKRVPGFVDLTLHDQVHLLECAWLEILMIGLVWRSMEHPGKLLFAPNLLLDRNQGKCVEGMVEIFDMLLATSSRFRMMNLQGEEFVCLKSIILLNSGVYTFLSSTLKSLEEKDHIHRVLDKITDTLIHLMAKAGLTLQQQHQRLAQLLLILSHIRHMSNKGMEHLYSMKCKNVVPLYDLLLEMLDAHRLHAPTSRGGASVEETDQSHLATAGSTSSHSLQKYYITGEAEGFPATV
From the text: fluorescence polarization competition (PolarScreen) on ERα (Estrogen Receptor α)

| IC50 [1] | IC50 [2] | Structure (SMILES) |
| --- | --- | --- |
| 4 µM | > 10 µM | O=c1c(Cn2ccnc2)c(-c2ccccc2)oc2cc(O)ccc12 [2b, 3-((1H-imidazol-1-yl)methyl)-7-hydroxy-2-phenyl-4H-chromen-4-one] |
| 2.2 µM | 0.203 µM | O=c1c(C(c2ccccc2)n2ccnc2)coc2cc(O)ccc12 (racemic) [4b, 3-((1H-imidazol-1-yl)(phenyl)methyl)-7-hydroxy-4H-chromen-4-one] |
| 0.122 µM | 0.595 µM | O=c1c(C(c2ccc([N+](=O)[O-])cc2)n2ccnc2)coc2cc(O)ccc12 (racemic) [4a, 3-((1H-imidazol-1-yl)(4-nitrophenyl)methyl)-7-hydroxy-4H-chromen-4-one] |
| 0.5 µM | 0.31 µM | O=c1c(C(c2ccccc2)n2ccnc2)coc2ccccc12 (racemic) [3b, 3-((1H-imidazol-1-yl)(phenyl)methyl)-4H-chromen-4-one] |
|  | > 10 µM | O=c1c(C(c2ccc([N+](=O)[O-])cc2)n2ccnc2)coc2ccccc12 (racemic) [3a] |
| 2.1 µM | > 10 µM | O=c1c(Cn2ccnc2)c(-c2ccc([N+](=O)[O-])cc2)oc2cc(O)ccc12 [2a, 3-((1H-imidazol-1-yl)methyl)-7-hydroxy-2-(4-nitrophenyl)-4H-chromen-4-one] |

Second part, the molecule before the results:

| Structure (SMILES) | IC50 [1] | IC50 [2] |
| --- | --- | --- |
| CC/C(=C(\c1ccc(O)cc1)c1ccc(OCCNC)cc1)c1ccccc1 [Endoxifen] | > 10 µM | 0.043 µM |
| N#Cc1ccc(C(c2ccc(C#N)cc2)n2cncn2)cc1 [Letrozole] |  | > 10 µM |
| O=c1c(Cn2ccnc2)c(-c2ccccc2)oc2ccccc12 [1b] |  | > 10 µM |
| O=c1c(Cn2ccnc2)c(-c2ccc([N+](=O)[O-])cc2)oc2ccccc12 [1a] |  | > 10 µM |
